According to patent US20190336496A1, “SELECTIVE BCL-2 INHIBITORS IN COMBINATION WITH AN ANTI-PD-1 OR AN ANTI-PD-L1 ANTIBODY FOR THE TREATMENT OF CANCERS” (AbbVie Inc., priority 2018, published 2019):

Experiments:
Experiment in all cases: Venetoclax cell killing (CellTiter-Glo)
Format in all cases: cell-based
LS411N = details: Homo sapiens, LS-411N, 120 h; Colorectal; 10% FBS; 5 days
Description: (§1) Solid tumor cell lines were obtained from American Type Culture Collection (ATCC, Manassas, Va.) or the National Cancer Institute (NCI) and cultured in humidified incubators at 37° C. (5% CO2) in appropriate media (specified by supplier) supplemented with 10% fetal bovine serum (FBS) or 10% human serum (HS). 24 hours after plating into 96-well or 384-well tissue culture plates, venetoclax was added to cells at various concentrations (typically 0.010 to 10 μM in half-log increments) to perform concentration-response assessments of cell killing. After 1 to 5 days of culture in the presence of venetoclax, cell viability was assessed using CellTiter-Glo® reagent (Promega). IC50 values were determined by non-linear regression analysis of the concentration response data (Table 5 and Table 6).

COLO-205 = details: Homo sapiens, COLO 205, 120 h; Colorectal; 10% FBS; 5 days
Description: as §1

NCI-H2009 = details: Homo sapiens, NCI-H2009, 72 h; Lung; 10% FBS; 3 days
Description: as §1

NCI-H524 = details: Homo sapiens, NCI-H524, 24 h; Lung; 10% FBS; 1 day
Description: as §1

DLD-1 = details: Homo sapiens, DLD-1, 120 h; Colorectal; 10% FBS; 5 days
Description: as §1

C32 = details: Homo sapiens, C32, 120 h; Melanoma; 10% FBS; 5 days
Description: as §1

NCI-H510A = details: Homo sapiens, 24 h, Lung, 10% FBS, 1 day
Description: as §1

SW620 = details: Homo sapiens, SW-620, 120 h; Colorectal; 10% FBS; 5 days
Description: as §1

SW948 = details: Homo sapiens, SW948, 120 h; Colorectal; 10% FBS; 5 days
Description: as §1

DU4475 = details: Homo sapiens, DU-4475, 120 h; Breast Cancer; 10% FBS; 5 days
Description: as §1

WM-115 = details: Homo sapiens, WM-115, 120 h; Melanoma; 10% FBS; 5 days
Description: as §1

HCT-116 = details: Homo sapiens, HCT-116, 120 h; Colorectal; 10% FBS; 5 days
Description: as §1

NCI-H1993 = details: Homo sapiens, NCI-H1993, 72 h; Lung; 10% FBS; 3 days
Description: as §1

Calu-1 = details: Homo sapiens, Calu-1, 72 h; Lung; 10% FBS; 3 days
Description: as §1

NCI-H1417 = details: Homo sapiens, NCI-H1417, 48 h; Lung; 10% HS; 2 days
Description: as §1

SW480 = details: Homo sapiens, SW480, 120 h; Colorectal; 10% FBS; 5 days
Description: as §1

NCI-H508 = details: Homo sapiens, NCI-H508, 72 h; Colorectal; 10% FBS; 3 days
Description: as §1

NCI-H1975 = details: Homo sapiens, NCI-H1975, 72 h; Lung; 10% FBS; 3 days
Description: as §1

A431 = details: Homo sapiens, A-431, 120 h; Epidermoid carcinoma (skin); 10% FBS; 5 days
Description: as §1

NCI-H1836 = details: Homo sapiens, NCI-H1836, 48 h; Lung; 10% HS; 2 days
Description: as §1

COLO-201 = details: Homo sapiens, COLO 201, 120 h; Colorectal; 10% FBS; 5 days
Description: as §1

SKBR3 = details: Homo sapiens, SK-BR-3, 72 h; Breast Cancer; 10% FBS; 3 days
Description: as §1

NCI-H1963 = details: Homo sapiens, NCI-H1963, 24 h; Lung; 10% FBS; 1 day
Description: as §1

NCI-H1299 = details: Homo sapiens, NCI-H1299, 120 h; Lung; 10% FBS; 5 days
Description: as §1

NCI-H209 = details: Homo sapiens, NCI-H209, 24 h; Lung; 10% FBS; 1 day
Description: as §1

NCI-H146 = details: Homo sapiens, NCI-H146, 48 h; Lung; 10% HS; 2 days
Description: as §1

NCI-H460 = details: Homo sapiens, NCI-H460, 72 h; Lung; 10% FBS; 3 days
Description: as §1

MDA-MB-468 = details: Homo sapiens, MDA-MB-468, 48 h; Breast Cancer; 10% FBS; 2 days
Description: as §1

NCI-H187 = details: Homo sapiens, NCI-H187, 48 h; Lung; 10% HS; 2 days
Description: as §1

NCI-H522 = details: Homo sapiens, NCI-H522, 72 h; Lung; 10% FBS; 3 days
Description: as §1

## CC1(C)CCC(CN2CCN(c3ccc(C(=O)NS(=O)(=O)c4ccc(NCC5CCOCC5)c([N+](=O)[O-])c4)c(Oc4cnc5[nH]ccc5c4)c3)CC2)=C(c2ccc(Cl)cc2)C1 [Compound (I), venetoclax]
LS411N
  IC50: 5.1 µM
COLO-205
  IC50: > 10 µM
NCI-H2009
  IC50: 4.11 µM
NCI-H524
  IC50: > 10 µM
DLD-1
  IC50: > 10 µM
C32
  IC50: > 10 µM
NCI-H510A
  IC50: 1.97 µM
SW620
  IC50: > 10 µM
SW948
  IC50: > 10 µM
DU4475
  IC50: > 10 µM
WM-115
  IC50: 4.96 µM
HCT-116
  IC50: > 10 µM
NCI-H1993
  IC50: 3.83 µM
Calu-1
  IC50: > 10 µM
NCI-H1417
  IC50: > 5 µM
SW480
  IC50: > 10 µM
NCI-H508
  IC50: 4.45 µM
NCI-H1975
  IC50: > 10 µM
A431
  IC50: 4.35 µM
NCI-H1836
  IC50: > 5 µM
COLO-201
  IC50: 9.78 µM
SKBR3
  IC50: 4.42 µM
NCI-H1963
  IC50: 4.59 µM
NCI-H1299
  IC50: > 10 µM
NCI-H209
  IC50: > 10 µM
NCI-H146
  IC50: 4.2 µM
NCI-H460
  IC50: > 10 µM
MDA-MB-468
  IC50: > 10 µM
NCI-H187
  IC50: 3.04 µM
NCI-H522
  IC50: > 10 µM
